# Data as given in patent US20230131899A1, “INHIBITORS OF MICROBIALLY INDUCED AMYLOID” (Axial Therapeutics, Inc., priority 2020, published 2023).
# Read-outs that look alike come from different tables or passages of the source.
# Biological target: T1, human α-synuclein (Homo sapiens, UniProt P37840)
# T1 construct: the full-length gene for untagged human α-synuclein was inserted; made in house; host or cells: E. coli BL21(DE3), plasmid derived from pT7 or pET11a
# Assay: Cell-free Thioflavin T assay of α-synuclein aggregation (αSyn ThT Assay)
# Assay type: biochemical
# Settings: αSyn 50 μM
# Summary of the method: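 Untagged full-length human α-synuclein from E. coli, 50 μM, with 20-40 μM ThT, 1% DMSO, compound at 20-100 μM and a glass bead, 37° C. with shaking. Fluorescence (ex 438/em 495 nm) read hourly to 73 h. Compound-only background subtracted and values normalised to vehicle at 36-72 h or final timepoint, giving % inhibition.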
# [1] = mean % inhibition of αSyn aggregation relative to DMSO control, compounds at 100 μM, read-out: αSyn ThT Assay % Inhibition
# [2] = compounds at 100 μM, class symbol, read-out: αSyn ThT Assay % Inhibition (activity range)
# [3] = class symbol, compounds 100 μM, read-out: αSyn ThT Assay % inhibition, activity range
# [4] = mean percent inhibition relative to DMSO control, compounds 100 μM, read-out: αSyn ThT Assay % inhibition
structure (smiles),measurement,setting,value
"O=C(O)c1c(-c2ccccc2)sc2c(-c3cccc(C(F)(F)F)c3)c(Cc3cccc4ccccc34)cc(=O)n12 [Compound 051, 7-(naphthalen-1-ylmethyl)-5-oxo-2-phenyl-8-(3-(trifluoromethyl)phenyl)-5H-thiazolo[3,2-a]pyridine-3-carboxylic acid]",inhibition at 100 µM,[1],47%
same,inhibition at 100 µM,[2],31 to 60%
"O=C(O)C1n2c(c(-c3cccc(C(F)(F)F)c3)c(Cc3cccc4ccccc34)nc2=O)SC12CCCC2 (stereo not shown) [Compound 053, 7′-(naphthalen-1-ylmethyl)-5′-oxo-8′-(3-(trifluoromethyl)phenyl)-3′H,5′H-spiro[cyclopentane-1,2′-thiazolo[3,2-c]pyrimidine]-3′-carboxylic acid]",inhibition at 100 µM,[1],65%
same,inhibition at 100 µM,[2],> 60%
"O=C(O)C1CSc2c(-c3cccc(C(F)(F)F)c3)c(Cc3cccc4ccccc34)cc(=S)n21 (stereo not shown) [Compound 054, 7-(naphthalen-1-ylmethyl)-5-thioxo-8-(3-(trifluoromethyl)phenyl)-2,3-dihydro-5H-thiazolo[3,2-a]pyridine-3-carboxylic acid]",inhibition at 100 µM,[1],39%
same,inhibition at 100 µM,[2],31 to 60%
"O=C(O)C1CN(CCCO)S(=O)(=O)c2c(-c3cccc(C(F)(F)F)c3)c(Cc3cccc4ccccc34)cc(=O)n21 (stereo not shown) [Compound 056, 2-(3-hydroxypropyl)-8-(naphthalen-1-ylmethyl)-6-oxo-9-(3-(trifluoromethyl)phenyl)-3,4-dihydro-2H,6H-pyrido[1,2-e][1,2,5]thiadiazine-4-carboxylic acid 1,1-dioxide]",inhibition at 100 µM,[1],59%
same,inhibition at 100 µM,[2],31 to 60%
"O=C(O)C1CSc2c(-c3cccc(C(F)(F)F)c3)c(Cc3cccc4ccccc34)c(CO)c(=O)n21 (stereo not shown) [Compound 057, 6-(hydroxymethyl)-7-(naphthalen-1-ylmethyl)-5-oxo-8-(3-(trifluoromethyl)phenyl)-2,3-dihydro-5H-thiazolo[3,2-a]pyridine-3-carboxylic acid]",inhibition at 100 µM,[1],54%
same,inhibition at 100 µM,[2],31 to 60%
"CC1(C)Sc2c(-c3cccc(C(F)(F)F)c3)c(Cc3cccc4ccccc34)nc(=O)n2C1C(=O)O (stereo not shown) [Compound 059, 2,2-dimethyl-7-(naphthalen-1-ylmethyl)-5-oxo-8-(3-(trifluoromethyl)phenyl)-2,3-dihydro-5H-thiazolo[3,2-c]pyrimidine-3-carboxylic acid]",inhibition at 100 µM,[1],36%
same,inhibition at 100 µM,[2],31 to 60%
"O=C(O)c1c(CCc2ccccc2)sc2c(-c3cccc(C(F)(F)F)c3)c(Cc3cccc4ccccc34)cc(=O)n12 [Compound 062, 7-(naphthalen-1-ylmethyl)-5-oxo-2-phenethyl-8-(3-(trifluoromethyl)phenyl)-5H-thiazolo[3,2-a]pyridine-3-carboxylic acid]",inhibition at 100 µM,[1],87%
same,inhibition at 100 µM,[2],> 60%
"O=C(O)C1COc2c(-c3cccc(C(F)(F)F)c3)c(Cc3cccc4ccccc34)cc(=O)n21 (stereo not shown) [Compound 064, 7-(naphthalen-1-ylmethyl)-5-oxo-8-(3-(trifluoromethyl)phenyl)-2,3-dihydro-5H-oxazolo[3,2-a]pyridine-3-carboxylic acid]",inhibition at 100 µM,[1],37%
same,inhibition at 100 µM,[2],31 to 60%
"O=C(O)C1CN(C[C@H](O)CO)S(=O)(=O)c2c(-c3cccc(C(F)(F)F)c3)c(Cc3cccc4ccccc34)cc(=O)n21 (stereo partly drawn) [Compound 065a, 2-((S)-2,3-dihydroxypropyl)-8-(naphthalen-1-ylmethyl)-6-oxo-9-(3-(trifluoromethyl)phenyl)-3,4-dihydro-2H,6H-pyrido[1,2-e][1,2,5]thiadiazine-4-carboxylic acid 1,1-dioxide]",inhibition at 100 µM,[1],32%
same,inhibition at 100 µM,[2],31 to 60%
"Cc1c(Cc2cccc3ccccc23)c(-c2cccc(C(F)(F)F)c2)c2n(c1=O)C(C(=O)O)CN(C)S2(=O)=O (stereo not shown) [Compound 068, 2,7-dimethyl-8-(naphthalen-1-ylmethyl)-6-oxo-9-(3-(trifluoromethyl)phenyl)-3,4-dihydro-2H,6H-pyrido[1,2-e][1,2,5]thiadiazine-4-carboxylic acid 1,1-dioxide]",inhibition at 100 µM,[1],74%
same,inhibition at 100 µM,[2],> 60%
CN1CC(C(=O)O)n2c(c(-c3cccc(C(F)(F)F)c3)c(Cc3cccc4ccccc34)c(NCc3ccccc3)c2=O)S1(=O)=O (stereo not shown) [Compound 071],inhibition at 100 µM,[1],38%
same,inhibition at 100 µM,[2],31 to 60%
"O=C(O)C1CSc2c(-c3cccc(C(F)(F)F)c3)c(C(F)(F)c3cccc4ccccc34)cc(=O)n21 (stereo not shown) [Compound 073, 7-(difluoro(naphthalen-1-yl)methyl)-5-oxo-8-(3-(trifluoromethyl)phenyl)-2,3-dihydro-5H-thiazolo[3,2-a]pyridine-3-carboxylic acid]",inhibition at 100 µM,[1],76%
same,inhibition at 100 µM,[2],> 60%
"CCCN1CC(C(=O)O)n2c(c(-c3cccc(C(F)(F)F)c3)c(C(F)(F)c3cccc4ccccc34)cc2=O)S1(=O)=O (stereo not shown) [Compound 138, 8-(difluoro(naphthalen-1-yl)methyl)-6-oxo-2-propyl-9-(3-(trifluoromethyl)phenyl)-3,4-dihydro-2H,6H-pyrido[1,2-e][1,2,5]thiadiazine-4-carboxylic acid 1,1-dioxide]",inhibition at 100 µM,[3],> 60%
same,inhibition at 100 µM,[4],74%
"CCc1c(Cc2cccc3ccccc23)c(-c2cccc(C(F)(F)F)c2)c2n(c1=O)C(C(=O)O)CN2Cc1ccccc1 (stereo not shown) [Compound 140, 1-benzyl-6-ethyl-7-(naphthalen-1-ylmethyl)-5-oxo-8-(3-(trifluoromethyl)phenyl)-1,2,3,5-tetrahydroimidazo[1,2-a]pyridine-3-carboxylic acid]",inhibition at 100 µM,[3],31 to 60%
same,inhibition at 100 µM,[4],48%
"CCCN1CC(C(=O)O)n2c(c(-c3cccc(C(F)(F)F)c3)c(Cc3cccc4ccccc34)c(O)c2=O)S1(=O)=O (stereo not shown) [Compound 141, 7-hydroxy-8-(naphthalen-1-ylmethyl)-6-oxo-2-propyl-9-(3-(trifluoromethyl)phenyl)-3,4-dihydro-2H,6H-pyrido[1,2-e][1,2,5]thiadiazine-4-carboxylic acid 1,1-dioxide]",inhibition at 100 µM,[3],> 60%
same,inhibition at 100 µM,[4],79%
"CCCN1CC(C(=O)O)n2c(c(-c3cccc(C(F)(F)F)c3)c(Cc3cccc4ccccc34)c(Cl)c2=O)S1(=O)=O (stereo not shown) [Compound 142, 7-chloro-8-(naphthalen-1-ylmethyl)-6-oxo-2-propyl-9-(3-(trifluoromethyl)phenyl)-3,4-dihydro-2H,6H-pyrido[1,2-e][1,2,5]thiadiazine-4-carboxylic acid 1,1-dioxide]",inhibition at 100 µM,[3],31 to 60%
same,inhibition at 100 µM,[4],40%
"CCCN1CC(C(=O)O)n2c(c(-c3cccc(C(F)(F)F)c3)c(Cc3cccc4ccccc34)c(OCC)c2=O)S1(=O)=O (stereo not shown) [Compound 143, 7-ethoxy-8-(naphthalen-1-ylmethyl)-6-oxo-2-propyl-9-(3-(trifluoromethyl)phenyl)-3,4-dihydro-2H,6H-pyrido[1,2-e][1,2,5]thiadiazine-4-carboxylic acid 1,1-dioxide]",inhibition at 100 µM,[3],> 60%
same,inhibition at 100 µM,[4],96%
"CCCN1CC(C(=O)O)n2c(c(-c3cccc(C(F)(F)F)c3)c(Cc3cccc4ccccc34)c(NC(=O)C(C)C)c2=O)S1(=O)=O (stereo not shown) [Compound 152, 7-isobutyramido-8-(naphthalen-1-ylmethyl)-6-oxo-2-propyl-9-(3-(trifluoromethyl)phenyl)-3,4-dihydro-2H,6H-pyrido[1,2-e][1,2,5]thiadiazine-4-carboxylic acid 1,1-dioxide]",inhibition at 100 µM,[3],31 to 60%
same,inhibition at 100 µM,[4],54%
"CCCN1CC(C(=O)O)n2c(c(-c3cccc(C(F)(F)F)c3)c(Cc3cccc4ccccc34)c(NC(=O)CC)c2=O)S1(=O)=O (stereo not shown) [Compound 153, 8-(naphthalen-1-ylmethyl)-6-oxo-7-propionamido-2-propyl-9-(3-(trifluoromethyl)phenyl)-3,4-dihydro-2H,6H-pyrido[1,2-e][1,2,5]thiadiazine-4-carboxylic acid 1,1-dioxide]",inhibition at 100 µM,[3],31 to 60%
same,inhibition at 100 µM,[4],48%
"CCCNC(=O)c1c(Cc2cccc3ccccc23)c(-c2cccc(C(F)(F)F)c2)c2n(c1=O)C(C(=O)O)CN(C)S2(=O)=O (stereo not shown) [Compound 154, 2-methyl-8-(naphthalen-1-ylmethyl)-6-oxo-7-(propylcarbamoyl)-9-(3-(trifluoromethyl)phenyl)-3,4-dihydro-2H,6H-pyrido[1,2-e][1,2,5]thiadiazine-4-carboxylic acid 1,1-dioxide]",inhibition at 100 µM,[3],> 60%
same,inhibition at 100 µM,[4],89%
"O=C(O)C1CN(Cc2ccccc2)c2c(-c3cccc(C(F)(F)F)c3)c(C(F)(F)c3cccc4ccccc34)c(Br)c(=O)n21 (stereo not shown) [Compound 155, 1-benzyl-6-bromo-7-(difluoro(naphthalen-1-yl)methyl)-5-oxo-8-(3-(trifluoromethyl)phenyl)-1,2,3,5-tetrahydroimidazo[1,2-a]pyridine-3-carboxylic acid]",inhibition at 100 µM,[3],31 to 60%
same,inhibition at 100 µM,[4],60%
"CCNC(=O)c1c(Cc2cccc3ccccc23)c(-c2cccc(C(F)(F)F)c2)c2n(c1=O)C(C(=O)O)CN(C)S2(=O)=O (stereo not shown) [Compound 156, 7-(ethylcarbamoyl)-2-methyl-8-(naphthalen-1-ylmethyl)-6-oxo-9-(3-(trifluoromethyl)phenyl)-3,4-dihydro-2H,6H-pyrido[1,2-e][1,2,5] thiadiazine-4-carboxylic acid 1,1-dioxide]",inhibition at 100 µM,[3],> 60%
same,inhibition at 100 µM,[4],70%
"CN1CC(C(=O)O)n2c(c(-c3cccc(C(F)(F)F)c3)c(Cc3cccc4ccccc34)c(C(=O)NC(C)(C)C)c2=O)S1(=O)=O (stereo not shown) [Compound 158, 7-(tert-butylcarbamoyl)-2-methyl-8-(naphthalen-1-ylmethyl)-6-oxo-9-(3-(trifluoromethyl)phenyl)-3,4-dihydro-2H,6H-pyrido[1,2-e][1,2,5]thiadiazine-4-carboxylic acid 1,1-dioxide]",inhibition at 100 µM,[3],> 60%
same,inhibition at 100 µM,[4],79%
